Test results from US8927717B1, “Thiochromeno[2,3-c]quinolin-12-one derivatives, preparation method and application thereof” (National Defense Medical Center, priority 2014, dated 2015).

Experiments:
HCT-116 = type: cell-based
CAKI-1 = type: cell-based
SW-620 = type: cell-based
HOP-92 = type: cell-based; conditions: Non-small cell lung cancer; 10^−5 molar; 48 hours; SRB
OVCAR-3 = type: cell-based
IGROV1 = type: cell-based
SK-MEL-2 = type: cell-based
SF-295 = type: cell-based
UACC-257 = type: cell-based
MDA-MB-486 = type: cell-based
TOP I (Topoisomerase I) [1] = target: T1, TOP I (Topoisomerase I) (Homo sapiens, UniProt P11387); assay: TOP I mediated supercoiled DNA relaxation assay; type: biochemical; conditions: primary assay at 25 and/or 50 μM
T1 construct: purchased TopoGEN TG2005H
T1 sequence (P11387 1-765): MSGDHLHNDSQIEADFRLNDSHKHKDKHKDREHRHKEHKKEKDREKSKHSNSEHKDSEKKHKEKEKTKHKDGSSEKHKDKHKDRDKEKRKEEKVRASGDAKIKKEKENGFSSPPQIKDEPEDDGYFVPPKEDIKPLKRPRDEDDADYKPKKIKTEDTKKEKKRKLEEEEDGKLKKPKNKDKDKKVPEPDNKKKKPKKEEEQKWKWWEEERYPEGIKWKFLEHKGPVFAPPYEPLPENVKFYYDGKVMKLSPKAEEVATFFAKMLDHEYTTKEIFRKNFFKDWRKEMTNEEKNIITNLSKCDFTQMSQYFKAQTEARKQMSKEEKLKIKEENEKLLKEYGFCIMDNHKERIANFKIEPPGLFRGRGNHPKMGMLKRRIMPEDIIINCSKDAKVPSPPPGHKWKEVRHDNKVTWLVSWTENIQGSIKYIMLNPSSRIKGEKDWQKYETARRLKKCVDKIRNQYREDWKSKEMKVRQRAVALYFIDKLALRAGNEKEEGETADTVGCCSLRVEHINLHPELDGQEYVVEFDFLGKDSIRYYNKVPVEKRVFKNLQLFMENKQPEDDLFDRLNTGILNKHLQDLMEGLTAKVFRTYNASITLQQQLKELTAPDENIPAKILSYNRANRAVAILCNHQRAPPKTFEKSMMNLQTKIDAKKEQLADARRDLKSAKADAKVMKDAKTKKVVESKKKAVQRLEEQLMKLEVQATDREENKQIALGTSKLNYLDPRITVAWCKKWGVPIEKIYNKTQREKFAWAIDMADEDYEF
Method: According to the cell cytotoxicity, compounds 5, 7, 8, 16, 19, N2, N7, N8, N9, N14-N19, and N25 were also selected for primary TOP I and II activities assays at 25 and/or 50 μM (FIG. 2-4).

[2] = target: T2, TOP II (Topoisomerase II) (Homo sapiens, UniProt P11388); assay: TOP II-catalyzed relaxation of plasmid DNA assay; type: biochemical
T2 construct: purchased TopoGEN TG-2000H-1
Method: We also performed TOP II-catalyzed relaxation of plasmid DNA assays (FIG. 5-7) to evaluate if compounds could inhibit TOP II. […] The IC50 value of compounds 7, N7, N8, N14, N15, N18, and N19 were about 10, 10, 1, 10, 5, 1, and 1 μM, respectively (detect by TopoGEN TG2005H, TG-2000H-1).

SF-539 = type: cell-based
ACHN = type: cell-based
NCI/ADR-RES = type: cell-based
T-47D = type: cell-based; conditions: Breast cancer; 10^−5 molar; 48 hours; SRB
SN12C = type: cell-based
HCC-2998 = type: cell-based
TOP I (Topoisomerase I) [3] = target: T1, TOP I (Topoisomerase I); assay: TOP I mediated supercoiled DNA relaxation assay; type: biochemical; conditions: five different concentrations; TopoGEN TG2005H, TG-2000H-1
OVCAR-4 = type: cell-based
HCT-15 = type: cell-based
SR = type: cell-based
M14 = type: cell-based
[4] = Colon cancer, 10^−5 molar, 48 hours, SRB
[5] = Homo sapiens, HCT-116, five dose
[6] = Renal cancer, 10^−5 molar, 48 hours, SRB
[7] = Homo sapiens, SW-620, five dose
[8] = Ovarian cancer, 10^−5 molar, 48 hours, SRB
[9] = Homo sapiens, SK-Mel-2, five dose
[10] = Melanoma, 10^−5 molar, 48 hours, SRB
[11] = CNS cancer, 10^−5 molar, 48 hours, SRB
[12] = Homo sapiens, SF-295, five dose
[13] = Homo sapiens, SF-539, five dose
[14] = Homo sapiens, HCC-2998, five dose
[15] = Homo sapiens, HCT-15, five dose

T2 sequence (P11388 whole entry): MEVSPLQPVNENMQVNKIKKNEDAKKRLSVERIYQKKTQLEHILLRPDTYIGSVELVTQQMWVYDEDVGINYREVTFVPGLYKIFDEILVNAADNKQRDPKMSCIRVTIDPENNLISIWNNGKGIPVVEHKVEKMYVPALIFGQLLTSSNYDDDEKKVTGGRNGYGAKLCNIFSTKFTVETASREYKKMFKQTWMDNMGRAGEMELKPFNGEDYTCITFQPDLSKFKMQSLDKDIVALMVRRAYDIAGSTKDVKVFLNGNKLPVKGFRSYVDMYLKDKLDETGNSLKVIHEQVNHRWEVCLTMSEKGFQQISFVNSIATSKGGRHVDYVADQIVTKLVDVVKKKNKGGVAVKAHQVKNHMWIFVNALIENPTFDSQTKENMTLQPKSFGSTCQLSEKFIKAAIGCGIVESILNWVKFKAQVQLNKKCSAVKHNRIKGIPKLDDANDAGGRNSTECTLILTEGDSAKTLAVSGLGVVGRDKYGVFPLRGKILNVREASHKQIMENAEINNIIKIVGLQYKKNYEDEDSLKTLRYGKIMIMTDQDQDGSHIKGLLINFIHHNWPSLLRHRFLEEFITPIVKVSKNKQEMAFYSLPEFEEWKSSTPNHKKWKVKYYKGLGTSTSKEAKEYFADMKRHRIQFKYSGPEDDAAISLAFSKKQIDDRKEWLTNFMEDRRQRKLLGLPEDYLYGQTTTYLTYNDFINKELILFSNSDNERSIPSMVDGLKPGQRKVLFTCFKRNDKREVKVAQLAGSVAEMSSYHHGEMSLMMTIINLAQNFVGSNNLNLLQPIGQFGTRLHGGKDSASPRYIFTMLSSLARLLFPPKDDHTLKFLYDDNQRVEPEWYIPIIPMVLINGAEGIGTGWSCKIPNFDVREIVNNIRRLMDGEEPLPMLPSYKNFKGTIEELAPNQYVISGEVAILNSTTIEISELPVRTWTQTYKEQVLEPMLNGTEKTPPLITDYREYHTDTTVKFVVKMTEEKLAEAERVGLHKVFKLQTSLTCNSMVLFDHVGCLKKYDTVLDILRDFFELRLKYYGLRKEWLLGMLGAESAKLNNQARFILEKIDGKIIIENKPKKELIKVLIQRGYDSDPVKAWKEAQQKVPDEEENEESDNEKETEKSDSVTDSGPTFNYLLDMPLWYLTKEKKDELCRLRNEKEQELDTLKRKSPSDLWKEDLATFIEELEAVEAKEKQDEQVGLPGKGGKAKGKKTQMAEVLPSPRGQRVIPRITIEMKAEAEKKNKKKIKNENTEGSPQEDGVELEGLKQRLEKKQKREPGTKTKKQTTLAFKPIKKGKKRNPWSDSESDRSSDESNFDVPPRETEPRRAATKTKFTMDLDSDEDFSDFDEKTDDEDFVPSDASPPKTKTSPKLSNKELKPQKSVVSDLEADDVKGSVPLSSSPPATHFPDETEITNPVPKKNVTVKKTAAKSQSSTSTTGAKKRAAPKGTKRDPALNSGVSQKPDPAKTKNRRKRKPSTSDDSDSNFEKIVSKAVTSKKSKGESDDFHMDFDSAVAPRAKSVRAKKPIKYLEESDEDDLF

For `CN(C)CCNc1nc2ccccc2c2c(=O)c3cc(Cl)ccc3sc12` [Compound N7, 10-Chloro-6-((2-(dimethylamino)ethyl)amino)-12H-thiochromeno[2,3-c]quinolin-12-one], the “Growth percent HCT-116” value (HCT-116; [4]) was −96.59%, the TGI (HCT-116; HCT-116, five dose) was 3.18 µM and the GI50 (HCT-116; [5]) was 1.57 µM. The LC50 (concentration killing 50% of cells) (HCT-116; [5]) was 6.45 µM, the TGI (CAKI-1; CAKI-1, five dose) was 2.80 µM and the GI50 (CAKI-1; Homo sapiens, CAKI-1, five dose) was 1.43 µM. The CC50 (CAKI-1; Homo sapiens, CAKI-1, five dose, read-out: LC50 (the source's name)) was 5.49 µM, the “Growth percent CAKI-1” value (CAKI-1; [6]) was 34.60% and the “Growth percent SW-620” value (SW-620; [4]) was −67.82%. For the same compound, the GI50 (SW-620; [7]) was 1.71 µM, the LC50 (SW-620; [7]) was 6.36 µM and the TGI (SW-620; SW-620, five dose) was 3.29 µM. For the same compound, the “Growth percent HOP-92” value (HOP-92) was −10.12%, the GI50 (OVCAR-3; Homo sapiens, OVCAR-3, five dose) was 1.61 µM and the CC50 (OVCAR-3; Homo sapiens, OVCAR-3, five dose, read-out: LC50 (the source's name)) was 5.58 µM. The TGI (OVCAR-3; OVCAR-3, five dose) was 3.00 µM, the “Growth percent OVCAR-3” value (OVCAR-3; [8]) was 19.74% and the GI50 (IGROV1; Homo sapiens, IGROV-1, IGROV1, five dose) was 1.7 µM. For the same compound, the CC50 (IGROV1; Homo sapiens, IGROV-1, IGROV1, five dose, read-out: LC50 (the source's name)) was 6.58 µM, the TGI (IGROV1; IGROV1, five dose) was 3.34 µM and the “Growth percent IGROV1” value (IGROV1; [8]) was 33.20%. For the same compound, the GI50 (SK-MEL-2; [9]) was 1.8 µM, the LC50 (SK-MEL-2; [9]) was 6.12 µM and the “Growth percent SK-MEL-2” value (SK-MEL-2; [10]) was −7.83%. For the same compound, the TGI (SK-MEL-2; SK-Mel-2, five dose) was 3.32 µM, the “Growth percent SF-295” value (SF-295; [11]) was −32.59% and the GI50 (SF-295; [12]) was 1.73 µM. For the same compound, the LC50 (SF-295; [12]) was 5.98 µM, the TGI (SF-295; SF-295, five dose) was 3.21 µM and the GI50 (UACC-257; Homo sapiens, UACC-257, five dose) was 1.74 µM. For the same compound, the CC50 (UACC-257; Homo sapiens, UACC-257, five dose, read-out: LC50 (the source's name)) was 5.93 µM, the “Growth percent UACC-257” value (UACC-257; [10]) was −48.22% and the TGI (UACC-257; UACC-257, five dose) was 3.21 µM. The GI50 (MDA-MB-486; 60 cell, MDA-MB-486, five dose) was 1.47 µM, the CC50 (MDA-MB-486; 60 cell, MDA-MB-486, five dose, read-out: LC50 (the source's name)) was 7.34 µM and the “Growth percent MDA-MB-486” value (MDA-MB-486; Breast cancer, 10^−5 molar, 48 hours, SRB) was 12.81%. For the same compound, the TGI (MDA-MB-486; MDA-MB-486, five dose) was 3.28 µM, the “inhibitory effect in TOP I activity assay compared with CPT” value (TOP I (Topoisomerase I) [1]) was “more potent inhibitory effects than CPT” and the IC50 ([2]; five different concentrations, TopoGEN TG2005H, TG-2000H-1, read-out: IC50 value, TOP II mediated supercoiled DNA relaxation) was about 10 µM. The “inhibitory effect in TOP II relaxation assay compared with VP-16” value ([2]; primary assay at 25 and/or 50 μM) was “more potent inhibitory effects than the positive agent VP-16”, the “Growth percent SF-539” value (SF-539; [11]) was 48.73% and the GI50 (SF-539; [13]) was 1.68 µM. It also gave an LC50 (SF-539; [13]) of 5.67 µM, a TGI (SF-539; SF-539, five dose) of 3.08 µM and a TGI (ACHN; ACHN, five dose) of 3.07 µM. For the same compound, the GI50 (ACHN; Homo sapiens, ACHN, five dose) was 1.63 µM, the CC50 (ACHN; Homo sapiens, ACHN, five dose, read-out: LC50 (the source's name)) was 5.77 µM and the “Growth percent ACHN” value (ACHN; [6]) was 7.55%. For the same compound, the GI50 (NCI/ADR-RES; Homo sapiens, NCI/ADR-RES, five dose) was 1.67 µM, the CC50 (NCI/ADR-RES; Homo sapiens, NCI/ADR-RES, five dose, read-out: LC50 (the source's name)) was 6 µM and the TGI (NCI/ADR-RES; NCI/ADR-RES, five dose) was 3.17 µM. For the same compound, the “Growth percent NCI/ADR-RES” value (NCI/ADR-RES; [8]) was 23.00%, the “Growth percent T-47D” value (T-47D) was 26.06% and the GI50 (SN12C; Homo sapiens, SN12C, five dose) was 1.59 µM. For the same compound, the CC50 (SN12C; Homo sapiens, SN12C, five dose, read-out: LC50 (the source's name)) was 6.12 µM, the “Growth percent SN12C” value (SN12C; [6]) was 48.67% and the TGI (SN12C; SN12C, five dose) was 3.12 µM. For the same compound, the “Growth percent HCC-2998” value (HCC-2998; [4]) was −83.65%, the TGI (HCC-2998; HCC-2998, five dose) was 3.38 µM and the GI50 (HCC-2998; [14]) was 1.68 µM. It also gave an LC50 (HCC-2998; [14]) of 6.82 µM, an IC50 (TOP I (Topoisomerase I) [3]) of about 10 µM and a GI50 (OVCAR-4; Homo sapiens, OVCAR-4, five dose) of 1.19 µM. For the same compound, the CC50 (OVCAR-4; Homo sapiens, OVCAR-4, five dose, read-out: LC50 (the source's name)) was 6.35 µM, the TGI (OVCAR-4; OVCAR-4, five dose) was 2.75 µM and the “Growth percent OVCAR-4” value (OVCAR-4; [8]) was 60.67%. For the same compound, the “Growth percent HCT-15” value (HCT-15; [4]) was −30.05%, the TGI (HCT-15; HCT-15, five dose) was 3.14 µM and the GI50 (HCT-15; [15]) was 1.59 µM. For the same compound, the LC50 (HCT-15; [15]) was 6.21 µM, the GI50 (SR; Homo sapiens, SR, five dose) was 1.7 µM and the LC50 (50% lethal concentration) (SR; Homo sapiens, SR, five dose) was 8.14 µM. The “Growth percent SR” value (SR; Leukemia, 10^−5 molar, 48 hours, SRB) was −34.76%, the TGI (SR; SR, five dose) was 3.73 µM and the GI50 (M14; Homo sapiens, M14, five dose) was 1.85 µM. For the same compound, the LC50 (M14; Homo sapiens, M14, five dose) was 6.4 µM, the TGI (M14; M14, five dose) was 3.44 µM and the “Growth percent M14” value (M14; [10]) was −92.77%.
